From patent US4350685A, “Antiallergic imidodisulfamides” (SmithKline Corporation, priority 1981, dated 1982)

Tested on: SRS-A induced contraction of guinea pig ileum
Test: inhibition of SRS-A induced contraction of guinea pig ileum (SRS-A antagonist activity)
Type: cell-based
Details: Cavia porcellus, 0.25 h, partially purified SRS-A from guinea pig lung, 40 μg/ml, 15 minutes incubation, read-out: percent antagonism of SRS-A; for inhibition at 5 µM: 5×10^-6 M
Procedure: The SRS-A antagonist activity of the compounds of this invention is measured by the ability of the active medicament to inhibit SRS-A induced contraction of guinea pig ileum. In this test system, sections of ileum are resected from guinea pigs and placed in 5 ml. tissue baths containing a modified Tyrode's solution. One end of the tissue is fixed to a glass tissue holder, the other is connected to a force-displacement transducer and the tissue is placed under a tension of 500 mg. Isometric tissue contractions are recorded on a six channel polygraph. Baths are constantly aerated with 95% O2 -5% CO2. After a 20 minute stabilization period a concentration of the appropriate agonist which provides a contraction height of 60-80% of the maximum obtainable to that agonist (as determined from full sequential concentration-response curves in separate experiments) is added to the tissue bath and the response recorded. The procedure is repeated until reproducible responses are obtained. For most agonists, two applications in rapid succession, followed 15 minutes later by a third, is sufficient to establish reproducibility. Experimental tissues are incubated with the selected concentration of the test compounds for 15 minutes. Experimental and control tissues are subjected to 5 bath changes during the incubation interval. Changes in bath fluid during the incubation period are helpful in insuring the reproducibility of tissue responses to the agonist. The same concentration of the agonist is reapplied in the presence of the test compound and the response registered and compared with controls. Percent inhibition produced by the test compound is calculated by substracting the mean percentage change in control tissue from the mean percentage change in tissues exposed to the test compound. Additional compounds are then evaluated as long as the tissue remains reproducibly responsive to the agonist. Six tissues obtained from 6 animals are used simultaneously--3 controls and 3 experimental. […]

| Structure (SMILES) | inhibition at 5 µM [%] | inhibition at 50 µM (5×10^-5 M) [%] |
| --- | --- | --- |
| O=S(=O)(N[C@@H]1C[C@H]1c1ccccc1)NS(=O)(=O)N[C@@H]1C[C@H]1c1ccccc1 (relative stereo) [Compound 1, 1,5-Di[TRANS-2-PHENYLCYCLOPROPYL]IMIDODISULFAMIDE] | 17 |  |
| O=S(=O)(N[C@@H]1C[C@H]1c1ccc(Cl)c(Cl)c1)NS(=O)(=O)N[C@@H]1C[C@H]1c1ccc(Cl)c(Cl)c1 (relative stereo) [Compound 2, 1,5-di[trans-2-(3,4-dichlorophenyl)cyclopropyl]imidodisulfamide] | 60 |  |
| O=S(=O)(N[C@@H]1CCCC[C@@H]1c1ccccc1)NS(=O)(=O)N[C@@H]1CCCC[C@@H]1c1ccccc1 (relative stereo) [Compound 3, 1,5-di[cis-2-phenylcyclohexyl]imidodisulfamide] |  | 86 |
